The record followed here is patent publication EP0640594A1, “Hydantoin derivative as metalloprotease inhibitor” (FUJIREBIO INC., priority 1993, dated 1995).

Each structure is given as a SMILES string. pIC50: −log10 of the molar value.

As usually defined, the pIC50 is −log10 of the IC50, conventionally taken in molar units. A lower pIC50 goes with a high IC50.

The target in one assay is T1, NEP (Rattus norvegicus, UniProt P07861).
T1 construct: The fractions with the NEP activity were collected, and was used as the enzyme source for the test; from tissue; host or cells: kidneys of male SD rats
T1 sequence (P07861 1-750): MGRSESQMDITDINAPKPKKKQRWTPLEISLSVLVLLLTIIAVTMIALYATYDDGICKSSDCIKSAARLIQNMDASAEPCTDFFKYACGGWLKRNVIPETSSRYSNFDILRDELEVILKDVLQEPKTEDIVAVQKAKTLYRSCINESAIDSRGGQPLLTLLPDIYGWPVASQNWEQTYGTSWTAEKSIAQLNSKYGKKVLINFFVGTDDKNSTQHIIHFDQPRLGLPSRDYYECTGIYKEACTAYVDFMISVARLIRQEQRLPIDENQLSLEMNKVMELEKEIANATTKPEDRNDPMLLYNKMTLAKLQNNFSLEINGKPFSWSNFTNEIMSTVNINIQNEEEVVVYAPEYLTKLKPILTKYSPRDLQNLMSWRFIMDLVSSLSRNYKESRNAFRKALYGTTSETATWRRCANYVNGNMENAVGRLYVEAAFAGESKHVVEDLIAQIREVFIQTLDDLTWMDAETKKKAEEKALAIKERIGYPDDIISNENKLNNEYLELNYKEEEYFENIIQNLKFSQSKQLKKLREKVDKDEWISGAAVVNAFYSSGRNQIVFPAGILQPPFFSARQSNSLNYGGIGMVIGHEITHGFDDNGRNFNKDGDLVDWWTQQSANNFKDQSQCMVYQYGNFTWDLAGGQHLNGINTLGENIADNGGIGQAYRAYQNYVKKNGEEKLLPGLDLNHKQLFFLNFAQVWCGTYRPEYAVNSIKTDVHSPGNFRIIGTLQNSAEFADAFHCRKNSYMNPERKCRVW
The assay is described as follows: in vitro inhibitory activity on NEP. The assay is classed as biochemical. As to conditions: NEP from kidneys of male SD rats; 0.4 mM glutaryl-Ala-Ala-Phe-4-methoxy-β-naphthylamide, pH 7.4, 37°C, 1 hour. As for the experimental part:
NEP was prepared as follows in accordance with the process as described in Peptide, 9, 173 (1988). Kidneys of male SD rats were homogenized with 10 times by volume of a tris/HCl buffer solution (pH 7.0) containing mannitol and magnesium chloride. The homogenate was centrifuged (700 × g) to give a supernatant liquid. To the supernatant liquid was added n-octyl-β-D-glucoside in an amount to give a final concentration of 1 %, followed by stirring at 4°C for 1 hour, thereby solubilizing the enzyme. The solution was dialyzed against 5 mM HEPES/0.1% Triton (pH 7.4). The inner liquid was applied to a DE-52 column (2.5 cm i.d. × 15 cm) equilibrated with 5 mM HEPES/0.1% Triton (pH 7.4). The column was eluted with 500 ml of a NaCl solution having a linear concentration gradient of 0-300 mM. The fractions with the NEP activity were collected, and was used as the enzyme source for the test.
The inhibitory activity on NEP was measured according to the method described in Biochemistry, 20, 4942 (1981). That is, 250 µl of a 50 mM tris/HCl buffer solution (pH 7.4) containing 0.4 mM of glutaryl-Ala-Ala-Phe-4-methoxy-β-naphthylamide, 0.25 unit/ml of leucine aminopeptidase, a predetermined amount of the sample compound and NEP was prepared and the reaction was carried out at 37°C for 1 hour. The amount of 4-methoxy-β-naphthylamide produced by the NEP activity was measured to determine the inhibitory activity.

The target of another assay is ACE (Homo sapiens, UniProt P12821). The assay is described as follows: in vitro inhibitory activity on ACE. Type of assay: biochemical. As to conditions: 0.016 unit/ml ACE; 2.0 mM hippuryl-L-histidyl-L-leucine, pH 8.4, 37°C, 30 minutes. As for the experimental part:
The inhibitory activity on ACE was measured according to the method described in Biochem. Pharmacolo., 20, 1637 (1971). That is, a 100 mM boric acid/sodium carbonate buffer solution (pH 8.4) containing 2.0 mM of hippuryl-L-histidyl-L-leucine, 0.016 unit/ml of ACE, 0.8 M of NaCl, and a predetermined amount of the sample compound was prepared and the reaction was carried out at 37°C for 30 minutes. The amount of hippuric acid produced by the ACE activity was measured to determine the inhibitory activity.

Chain of ACE (P12821 30-1306, species assumed): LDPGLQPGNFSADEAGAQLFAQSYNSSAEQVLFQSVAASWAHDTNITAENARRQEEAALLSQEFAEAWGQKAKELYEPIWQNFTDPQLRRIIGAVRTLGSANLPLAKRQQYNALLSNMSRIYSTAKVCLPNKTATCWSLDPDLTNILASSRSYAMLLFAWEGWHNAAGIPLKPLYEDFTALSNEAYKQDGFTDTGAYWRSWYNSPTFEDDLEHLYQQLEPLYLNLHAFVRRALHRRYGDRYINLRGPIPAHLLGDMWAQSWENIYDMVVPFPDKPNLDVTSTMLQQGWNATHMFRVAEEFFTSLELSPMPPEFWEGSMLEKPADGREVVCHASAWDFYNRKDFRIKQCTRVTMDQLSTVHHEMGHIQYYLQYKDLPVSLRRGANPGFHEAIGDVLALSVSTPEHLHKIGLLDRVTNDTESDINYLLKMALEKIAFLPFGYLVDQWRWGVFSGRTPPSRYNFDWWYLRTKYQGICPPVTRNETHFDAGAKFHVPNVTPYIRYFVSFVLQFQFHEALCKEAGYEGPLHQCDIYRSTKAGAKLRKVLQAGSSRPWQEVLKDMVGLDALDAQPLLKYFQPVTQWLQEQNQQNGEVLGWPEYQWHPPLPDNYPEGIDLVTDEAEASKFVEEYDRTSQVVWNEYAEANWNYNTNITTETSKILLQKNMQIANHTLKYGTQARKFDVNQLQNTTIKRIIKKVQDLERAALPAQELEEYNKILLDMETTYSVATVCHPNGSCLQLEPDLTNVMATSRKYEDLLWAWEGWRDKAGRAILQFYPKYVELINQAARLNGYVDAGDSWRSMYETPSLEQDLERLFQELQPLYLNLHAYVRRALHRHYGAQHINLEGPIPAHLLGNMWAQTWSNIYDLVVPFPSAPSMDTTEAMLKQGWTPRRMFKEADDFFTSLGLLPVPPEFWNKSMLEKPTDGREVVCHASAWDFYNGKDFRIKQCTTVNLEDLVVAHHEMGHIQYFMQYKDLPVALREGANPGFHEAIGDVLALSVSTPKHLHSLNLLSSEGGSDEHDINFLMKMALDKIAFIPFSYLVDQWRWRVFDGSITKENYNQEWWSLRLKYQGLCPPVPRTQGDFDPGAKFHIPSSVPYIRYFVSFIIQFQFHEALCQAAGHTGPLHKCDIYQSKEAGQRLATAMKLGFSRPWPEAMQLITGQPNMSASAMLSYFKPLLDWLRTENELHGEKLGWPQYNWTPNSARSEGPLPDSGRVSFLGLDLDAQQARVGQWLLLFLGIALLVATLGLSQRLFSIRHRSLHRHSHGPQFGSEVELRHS

In turn, `O=C1CN(N2CCOCC2)C(=O)N1C(CS)Cc1ccccc1` (centres unmarked) [Example 46, 3-(1-mercapto-3-phenyl-2-propyl)-1-(4-morpholinyl)hydantoin] showed a pIC50 at NEP of 6.96.

With `O=C(O)CN1C(=O)N(C(CS)Cc2ccccc2)C(=O)C12CCCCC2` (centres unmarked) [Example 34], the negative-log IC50 (pIC50) at ACE is 6.70. As to `O=C(O)CN1C(=O)N(C(CS)Cc2ccccc2)C(=O)C12Cc1ccccc1C2` (centres unmarked) [Example 44, 1-(carboxymethyl)-3-(1-mercapto-3-phenyl-2-propyl)hydantoin-5-spiro-2'-indane], the results for the pIC50 against NEP and against ACE were 7.00 and 6.17, respectively.

On NEP, `O=C(O)CCC1C(=O)N(C(CS)Cc2ccccc2)C(=O)N1C1CCCC1` (centres unmarked) [Example 19, 5-(2-carboxyethyl)-1-cyclopentyl-3-(1-mercapto-3-phenyl-2-propyl)hydantoin] showed a negative logarithm of the IC50 (pIC50) of 6.80. At ACE, `CC(CS)N1C(=O)N(CC(=O)O)C2(CCCC2)C1=O` (centres unmarked) [Example 63, 1-(carboxymethyl)-3-(1-mercapto-2-propyl)hydantoin-5-spirocyclopentane] showed a pIC50 of 6.74. Same read-out and setting: the value for `O=C(O)CN1C(=O)N(C(CS)Cc2ccccc2)C(=O)C12CCC2` (centres unmarked) [Example 50, 1-(carboxymethyl)-3-(1-mercapto-3-phenyl-2-propyl)-hydantoin-5-spirocyclobutane] was 6.52. Still for that read-out and setting: to `CC(C)C1C(=O)N(C(CS)Cc2ccccc2)C(=O)N1CC(=O)O` (centres unmarked) [Example 36, 1-(carboxymethyl)-5-(1-methylethyl)-3-(1-mercapto-3-phenyl-2-propyl)hydantoin] belongs 5.47. For `O=C(O)CN1C(=O)N(C(CS)Cc2ccccc2)C(=O)C1c1ccccc1` (centres unmarked) [Example 52, 1-(carboxymethyl)-5-phenyl-3-(1-mercapto-3-phenyl-2-propyl)hydantoin], the pIC50 against NEP was 7.21; on ACE, 6.35. For `O=C(O)[C@H](Cc1ccccc1)N1CC(=O)N(C(CS)Cc2ccccc2)C1=O` (stereo partly drawn) [Example 27, 1-[(1S)-1-carboxy-2-phenylethyl]-3-(1-mercapto-3-phenyl-2-propyl)hydantoin], at NEP, the negative logarithm of the IC50 (pIC50) was 6.59. On the same count and under the same terms, the value for `O=C1CN(N2CCCCC2)C(=O)N1C(CS)Cc1ccccc1` (centres unmarked) [Example 45, 3-(1-mercapto-3-phenyl-2-propyl)-1-piperidinylhydantoin] was 7.23. On ACE, `CC1(C)C(=O)N(C(CS)Cc2ccccc2)C(=O)N1CC(=O)O` (centres unmarked) [Example 40, 1-(carboxymethyl)-5,5-dimethyl-3-(1-mercapto-3-phenyl-2-propyl)hydantoin] gave a negative logarithm of the IC50 (pIC50) of 5.62.

As to `O=C(O)CN1C(=O)N(C(CS)Cc2ccccc2)C(=O)C1C1c2ccccc2-c2ccccc21` (centres unmarked) [Example 60, 1-(carboxymethyl)-5-(9-fluorenyl)-3-(1-mercapto-3-phenyl-2-propyl)hydantoin], the pIC50 against NEP is 6.74. On the same count and under the same terms, to `CCC(C)[C@@H](C(=O)O)N1CC(=O)N(C(CS)Cc2ccccc2)C1=O` (stereo partly drawn) [Example 29, 1-[(1S)-1-carboxy-2-methylbutyl]-3-(1-mercapto-3-phenyl-2-propyl)hydantoin] belongs 7.25; to `O=C(O)CN1C(=O)N(C(CS)Cc2ccccc2)C(=O)C1C(c1ccccc1)c1ccccc1` (centres unmarked) [Example 53, 1-(carboxymethyl)-5-(diphenylmethyl)-3-(1-mercapto-3-phenyl-2-propyl)hydantoin], 6.64. Same read-out and setting: the value for `CC(C)C[C@@H](C(=O)O)N1CC(=O)N(C(CS)Cc2ccccc2)C1=O` (stereo partly drawn) [Example 28, 1-[(1S)-1-carboxy-3-methylbutyl]-3-(1-mercapto-3-phenyl-2-propyl)hydantoin] was 6.66; that for `O=C1CN(C2CCCCC2)C(=O)N1C(CS)Cc1ccccc1` (centres unmarked) [Example 3, 1-cyclohexyl-3-(1-mercapto-3-phenyl-2-propyl)hydantoin] was 6.60. `O=C(O)CN1CC(=O)N(C(CS)Cc2ccccc2)C1=O` (centres unmarked) [Example 20, 1-(carboxymethyl)-3-(1-mercapto-3-phenyl-2-propyl)hydantoin]: the figures for the pIC50 against NEP and on ACE were 6.64 and 5.27, respectively.

Consider `O=C1CN(C2CCCC2)C(=O)N1C(CS)Cc1ccccc1` (centres unmarked) [Example 1, 1-cyclopentyl-3-(1-mercapto-3-phenyl-2-propyl)hydantoin], for which the pIC50 at NEP was 6.35.

Turning to `CC(C)CC(CS)N1C(=O)CN(CC(=O)O)C1=O` (centres unmarked) [Example 66, 1-(carboxymethyl)-3-(1-mercapto-4-methyl-2-pentyl)-hydantoin], the pIC50 against NEP was 6.15.

As for `CC(C)C(CS)N1C(=O)N(CC(=O)O)C2(CCCC2)C1=O` (centres unmarked) [Example 65, 1-(carboxymethyl)-3-(1-mercapto-3-methyl-2-butyl)hydantoin-5-spirocyclopentane], the pIC50 against ACE was 6.00. `CC(C)[C@@H](C(=O)O)N1CC(=O)N(C(CS)Cc2ccccc2)C1=O` (stereo partly drawn) [Example 21, 1-[(1S)-1-carboxy-2-methylpropyl)-3-(1-mercapto-3-phenyl-2-propyl)hydantoin] gave a negative logarithm of the IC50 (pIC50) on NEP of 7.28. Same read-out and setting: to `COc1ccc(C2C(=O)N(C(CS)Cc3ccccc3)C(=O)N2CC(=O)O)cc1` (centres unmarked) [Example 56, 1-(carboxymethyl)-3-(1-mercapto-3-phenyl-2-propyl)-5-(4-methoxyphenyl)hydantoin] belongs 8.19. With `CCC(C)C1C(=O)N(C(CS)Cc2ccccc2)C(=O)N1CC(=O)O` (centres unmarked) [Example 42, 5-(2-butyl)-1-(carboxymethyl)-3-(1-mercapto-3-phenyl-2-propyl)hydantoin], the pIC50 against ACE was 5.80.

Take `O=C(O)CN1C(=O)N(C(CS)Cc2ccccc2)C(=O)C1c1ccc(O)cc1` (centres unmarked) [Example 55, 1-(carboxymethyl)-5-(4-hydroxyphenyl)-3-(1-mercapto-3-phenyl-2-propyl)hydantoin]: on NEP, the pIC50 is 7.05. Consider `O=C1CN(C2(C(=O)O)CCCCC2)C(=O)N1C(CS)Cc1ccccc1` (centres unmarked) [Example 24, 1-(1-carboxycyclohexyl)-3-(1-mercapto-3-phenyl-2-propyl) hydantoin], for which the pIC50 on ACE was 5.28. Turning to `O=C(O)CN1C(=O)N(C(CS)Cc2ccccc2)C(=O)C1C1CCCC1` (centres unmarked) [Example 51, 1-(carboxymethyl)-5-cyclopentyl-3-(1-mercapto-3-phenyl-2-propyl)hydantoin], the pIC50 against NEP was 6.25; against ACE, 6.43. The molecule `C[C@@H](C(=O)O)N1CC(=O)N(C(CS)Cc2ccccc2)C1=O` (stereo partly drawn) [Example 26, 1-[(1S)-1-carboxyethyl]-3-(1-mercapto-3-phenyl-2-propyl)hydantoin] gave a negative-log IC50 (pIC50) at NEP of 6.77. On to `O=C(O)Cn1c(=O)n(C(CS)Cc2ccccc2)c(=O)n1C1CCCC1` (centres unmarked) [Example 72, 1-(carboxymethyl)-2-cyclopentyl-4-(1-mercapto-3-phenyl-2-propyl)urazole], for which the pIC50 at NEP is 6.40. In turn, `CC(O)C1C(=O)N(C(CS)Cc2ccccc2)C(=O)N1CC(=O)O` (centres unmarked) [Example 43, 1-(carboxymethyl)-5-(1-hydroxyethyl)-3-(1-mercapto-3-phenyl-2-propyl)hydantoin] had a pIC50 at ACE of 5.96.

With `CC(C)Oc1ccc(C2C(=O)N(C(CS)Cc3ccccc3)C(=O)N2CC(=O)O)cc1` (centres unmarked) [Example 58, 1-(carboxymethyl)-3-(1-mercapto-3-phenyl-2-propyl)-5-[4-(2-propyloxy)phenyl]hydantoin], the negative-log IC50 (pIC50) at NEP was 7.55.

Molecule `O=C(O)CC1C(=O)N(C(CS)Cc2ccccc2)C(=O)N1C1CCCC1` (centres unmarked) [Example 18, 5-(carboxymethyl)-1-cyclopentyl-3-(1-mercapto-3-phenyl-2-propyl)hydantoin] gave a pIC50 against NEP of 6.60.
